According to patent US11697648B2, “Fused pyrimidine pyridinone compounds as JAK inhibitors” (THERAVANCE BIOPHARMA R&D IP, LLC, priority 2019, dated 2023):

target: JAK2 (Homo sapiens (Human), UniProt O60674); test: Biochemical JAK2 kinase assay (LanthaScreen); settings: not given
How it was run: (§1)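 GST-JAK + GFP-STAT1 peptide, HEPES pH 7.5/MgCl2/EGTA/Brij-35 buffer; cpd preincubation 1 h RT; ATP start, 1 h RT; stop with 10 mM EDTA + 2 nM Tb-anti-pSTAT1; TR-FRET 520/495. 4-parameter IC50 → pKi (Cheng-Prusoff).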

JAK2, sequence (O60674 whole entry): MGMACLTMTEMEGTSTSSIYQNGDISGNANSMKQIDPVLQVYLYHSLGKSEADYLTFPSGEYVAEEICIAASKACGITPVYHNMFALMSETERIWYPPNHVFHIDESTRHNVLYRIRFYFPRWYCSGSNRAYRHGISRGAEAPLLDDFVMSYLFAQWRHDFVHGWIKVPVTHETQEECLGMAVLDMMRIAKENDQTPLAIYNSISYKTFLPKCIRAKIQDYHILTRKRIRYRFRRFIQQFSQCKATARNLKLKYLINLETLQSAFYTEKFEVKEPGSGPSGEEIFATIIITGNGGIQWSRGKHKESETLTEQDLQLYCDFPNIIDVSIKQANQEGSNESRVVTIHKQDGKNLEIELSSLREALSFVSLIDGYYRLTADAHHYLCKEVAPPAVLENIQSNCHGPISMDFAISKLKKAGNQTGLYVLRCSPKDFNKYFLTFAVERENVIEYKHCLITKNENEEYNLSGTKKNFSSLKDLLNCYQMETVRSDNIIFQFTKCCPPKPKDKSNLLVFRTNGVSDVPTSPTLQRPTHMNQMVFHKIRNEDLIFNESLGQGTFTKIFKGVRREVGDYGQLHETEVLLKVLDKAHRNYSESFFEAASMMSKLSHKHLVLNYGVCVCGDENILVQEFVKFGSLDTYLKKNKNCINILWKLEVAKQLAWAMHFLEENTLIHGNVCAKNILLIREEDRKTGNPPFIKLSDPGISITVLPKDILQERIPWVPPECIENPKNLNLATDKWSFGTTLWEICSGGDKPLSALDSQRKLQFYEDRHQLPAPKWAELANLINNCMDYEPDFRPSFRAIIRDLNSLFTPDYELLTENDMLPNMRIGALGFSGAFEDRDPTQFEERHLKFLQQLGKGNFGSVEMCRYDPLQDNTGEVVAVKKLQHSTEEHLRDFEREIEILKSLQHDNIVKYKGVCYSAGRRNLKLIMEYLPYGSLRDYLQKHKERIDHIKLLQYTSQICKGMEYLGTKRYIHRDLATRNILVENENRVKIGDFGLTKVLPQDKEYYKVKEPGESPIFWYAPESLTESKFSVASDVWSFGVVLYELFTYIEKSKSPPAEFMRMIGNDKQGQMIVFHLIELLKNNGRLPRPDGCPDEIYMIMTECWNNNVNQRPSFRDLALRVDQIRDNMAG

SMILES	JAK 2 (pKi)
C=CC(=O)N1CC(CCn2c(=O)ccc3cnc(Nc4cccc(C(C)N5CCN(C(C)=O)CC5)c4)nc32)C1 (stereo not drawn) [Example 216]	E (E represents a pKi value of 7 or below (Ki of 100 nM or above))
C=CC(=O)N1CC(CC)(CCn2c(=O)ccc3cnc(Nc4ccc(N5CCN(C)CC5)cc4)nc32)C1 [Example 217]	D (D represents a pKi value between 7 and 8 (Ki between 100 nM and 10 nM))
C=CC(=O)N1CCN(CCn2c(=O)ccc3cnc(Nc4ccc(N5CCN(C(C)(C)C)CC5)cc4)nc32)CC1 [Example 219]	E (E represents a pKi value of 7 or below (Ki of 100 nM or above))
C=CC(=O)N1CCN(CCn2c(=O)ccc3cnc(Nc4cnn(CCOC(C)C)c4)nc32)[C@@H](CC)C1 [Example 220]	E (E represents a pKi value of 7 or below (Ki of 100 nM or above))
C=CC(=O)N1CCN(CCn2c(=O)ccc3cnc(Nc4cnn(CCOCC)c4)nc32)[C@@H](CC)C1 [Example 221]	E (E represents a pKi value of 7 or below (Ki of 100 nM or above))
C=CC(=O)N1CC(CCn2c(=O)ccc3cnc(Nc4ccc(OCCO)cc4)nc32)C1 [Example 223]	E (E represents a pKi value of 7 or below (Ki of 100 nM or above))
C=CC(=O)N1CC(CCn2c(=O)ccc3cnc(Nc4ccc(N(C)CCO)cc4)nc32)C1 [Example 224]	E (E represents a pKi value of 7 or below (Ki of 100 nM or above))

test system: IL-2 stimulated STAT5 phosphorylation in Tall-1 human T cell line (JAK3); test: Cellular JAK3 potency assay: inhibition of IL-2 stimulated pSTAT5 in Tall-1 T cells; assay type: cell-based; settings: IL-2 stimulated pSTAT5, Tall-1 T cells
How it was run: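 Tall-1 cells, 45,000 per well, preincubated 1 hour with compound at 37 °C, then stimulated 30 minutes with IL-2 at 300 ng/ml final. pSTAT5 (Tyr694/699) in lysates quantified by AlphaLISA SureFire Ultra. pIC50 derived from inhibition curves, given as mean with SD.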

SMILES	Tall-1 (pIC50)
C=CC(=O)N1CC(CCn2c(=O)ccc3cnc(Nc4cccc(C(C)N5CCN(C(C)=O)CC5)c4)nc32)C1 (stereo not drawn) [Example 216]	C (C represents a pIC50 value between 6 and 6.7 (IC50 between 1 μM and 200 nM))
C=CC(=O)N1CC(CC)(CCn2c(=O)ccc3cnc(Nc4ccc(N5CCN(C)CC5)cc4)nc32)C1 [Example 217]	A (A represents a pIC50 value≥7.5 (IC50≤32 nM))
C=CC(=O)N1CCN(CCn2c(=O)ccc3cnc(Nc4ccc(N5CCN(C(C)(C)C)CC5)cc4)nc32)CC1 [Example 219]	A (A represents a pIC50 value≥7.5 (IC50≤32 nM))
C=CC(=O)N1CCN(CCn2c(=O)ccc3cnc(Nc4cnn(CCOC(C)C)c4)nc32)[C@@H](CC)C1 [Example 220]	B (B represents a pC50 value between 6.7 (included) and 7.5 (IC50 between 200 nM and 32 nM))
C=CC(=O)N1CCN(CCn2c(=O)ccc3cnc(Nc4cnn(CCOCC)c4)nc32)[C@@H](CC)C1 [Example 221]	B (B represents a pC50 value between 6.7 (included) and 7.5 (IC50 between 200 nM and 32 nM))
C=CC(=O)N1CC(CCn2c(=O)ccc3cnc(Nc4ccc(OCCO)cc4)nc32)C1 [Example 223]	B (B represents a pC50 value between 6.7 (included) and 7.5 (IC50 between 200 nM and 32 nM))
C=CC(=O)N1CC(CCn2c(=O)ccc3cnc(Nc4ccc(N(C)CCO)cc4)nc32)C1 [Example 224]	B (B represents a pC50 value between 6.7 (included) and 7.5 (IC50 between 200 nM and 32 nM))

target: JAK1 (Homo sapiens (Human), UniProt P23458); test: Biochemical JAK1 kinase assay (LanthaScreen); settings: not given
Sequence (P23458 whole entry): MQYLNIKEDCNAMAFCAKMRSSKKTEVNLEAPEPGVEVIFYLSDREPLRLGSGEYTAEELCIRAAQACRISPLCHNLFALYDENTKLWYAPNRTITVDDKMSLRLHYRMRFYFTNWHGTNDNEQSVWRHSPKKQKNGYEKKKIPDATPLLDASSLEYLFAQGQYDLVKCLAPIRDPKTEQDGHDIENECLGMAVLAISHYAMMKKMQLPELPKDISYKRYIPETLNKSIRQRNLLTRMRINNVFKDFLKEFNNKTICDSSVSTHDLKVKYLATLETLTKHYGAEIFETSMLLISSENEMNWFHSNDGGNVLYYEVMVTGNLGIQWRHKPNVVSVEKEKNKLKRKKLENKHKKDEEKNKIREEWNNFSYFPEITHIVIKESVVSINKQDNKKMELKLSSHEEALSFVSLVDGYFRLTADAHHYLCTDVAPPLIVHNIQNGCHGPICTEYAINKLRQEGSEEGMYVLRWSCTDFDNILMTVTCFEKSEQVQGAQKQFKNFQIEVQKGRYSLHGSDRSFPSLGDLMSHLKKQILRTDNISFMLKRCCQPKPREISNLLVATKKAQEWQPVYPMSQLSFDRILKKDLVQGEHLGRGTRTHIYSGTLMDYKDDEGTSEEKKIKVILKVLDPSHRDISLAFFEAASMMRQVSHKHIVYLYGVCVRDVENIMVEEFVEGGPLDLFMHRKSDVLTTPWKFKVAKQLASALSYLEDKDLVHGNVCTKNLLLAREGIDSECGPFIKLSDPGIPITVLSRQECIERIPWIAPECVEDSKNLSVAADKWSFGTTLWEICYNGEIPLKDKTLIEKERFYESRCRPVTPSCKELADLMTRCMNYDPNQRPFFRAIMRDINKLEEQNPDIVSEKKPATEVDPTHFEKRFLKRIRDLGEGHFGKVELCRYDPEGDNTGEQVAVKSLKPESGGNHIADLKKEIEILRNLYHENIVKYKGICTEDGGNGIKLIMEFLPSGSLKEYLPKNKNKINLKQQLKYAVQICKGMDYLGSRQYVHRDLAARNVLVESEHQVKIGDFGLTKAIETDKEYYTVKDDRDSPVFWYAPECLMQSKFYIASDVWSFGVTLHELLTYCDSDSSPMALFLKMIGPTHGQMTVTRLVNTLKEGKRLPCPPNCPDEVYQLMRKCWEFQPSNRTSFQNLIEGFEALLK
How it was run: as §1

SMILES	JAK 1 (pKi)
C=CC(=O)N1CC(CCn2c(=O)ccc3cnc(Nc4cccc(C(C)N5CCN(C(C)=O)CC5)c4)nc32)C1 (stereo not drawn) [Example 216]	E (E represents a pKi value of 7 or below (Ki of 100 nM or above))
C=CC(=O)N1CC(CC)(CCn2c(=O)ccc3cnc(Nc4ccc(N5CCN(C)CC5)cc4)nc32)C1 [Example 217]	E (E represents a pKi value of 7 or below (Ki of 100 nM or above))
C=CC(=O)N1CCN(CCn2c(=O)ccc3cnc(Nc4ccc(N5CCN(C(C)(C)C)CC5)cc4)nc32)CC1 [Example 219]	E (E represents a pKi value of 7 or below (Ki of 100 nM or above))
C=CC(=O)N1CCN(CCn2c(=O)ccc3cnc(Nc4cnn(CCOC(C)C)c4)nc32)[C@@H](CC)C1 [Example 220]	E (E represents a pKi value of 7 or below (Ki of 100 nM or above))
C=CC(=O)N1CCN(CCn2c(=O)ccc3cnc(Nc4cnn(CCOCC)c4)nc32)[C@@H](CC)C1 [Example 221]	E (E represents a pKi value of 7 or below (Ki of 100 nM or above))
C=CC(=O)N1CC(CCn2c(=O)ccc3cnc(Nc4ccc(OCCO)cc4)nc32)C1 [Example 223]	E (E represents a pKi value of 7 or below (Ki of 100 nM or above))
C=CC(=O)N1CC(CCn2c(=O)ccc3cnc(Nc4ccc(N(C)CCO)cc4)nc32)C1 [Example 224]	E (E represents a pKi value of 7 or below (Ki of 100 nM or above))

target: JAK3 (Homo sapiens (Human), UniProt P52333); test: Biochemical JAK3 kinase assay (LanthaScreen); settings: not given
Sequence (P52333 whole entry): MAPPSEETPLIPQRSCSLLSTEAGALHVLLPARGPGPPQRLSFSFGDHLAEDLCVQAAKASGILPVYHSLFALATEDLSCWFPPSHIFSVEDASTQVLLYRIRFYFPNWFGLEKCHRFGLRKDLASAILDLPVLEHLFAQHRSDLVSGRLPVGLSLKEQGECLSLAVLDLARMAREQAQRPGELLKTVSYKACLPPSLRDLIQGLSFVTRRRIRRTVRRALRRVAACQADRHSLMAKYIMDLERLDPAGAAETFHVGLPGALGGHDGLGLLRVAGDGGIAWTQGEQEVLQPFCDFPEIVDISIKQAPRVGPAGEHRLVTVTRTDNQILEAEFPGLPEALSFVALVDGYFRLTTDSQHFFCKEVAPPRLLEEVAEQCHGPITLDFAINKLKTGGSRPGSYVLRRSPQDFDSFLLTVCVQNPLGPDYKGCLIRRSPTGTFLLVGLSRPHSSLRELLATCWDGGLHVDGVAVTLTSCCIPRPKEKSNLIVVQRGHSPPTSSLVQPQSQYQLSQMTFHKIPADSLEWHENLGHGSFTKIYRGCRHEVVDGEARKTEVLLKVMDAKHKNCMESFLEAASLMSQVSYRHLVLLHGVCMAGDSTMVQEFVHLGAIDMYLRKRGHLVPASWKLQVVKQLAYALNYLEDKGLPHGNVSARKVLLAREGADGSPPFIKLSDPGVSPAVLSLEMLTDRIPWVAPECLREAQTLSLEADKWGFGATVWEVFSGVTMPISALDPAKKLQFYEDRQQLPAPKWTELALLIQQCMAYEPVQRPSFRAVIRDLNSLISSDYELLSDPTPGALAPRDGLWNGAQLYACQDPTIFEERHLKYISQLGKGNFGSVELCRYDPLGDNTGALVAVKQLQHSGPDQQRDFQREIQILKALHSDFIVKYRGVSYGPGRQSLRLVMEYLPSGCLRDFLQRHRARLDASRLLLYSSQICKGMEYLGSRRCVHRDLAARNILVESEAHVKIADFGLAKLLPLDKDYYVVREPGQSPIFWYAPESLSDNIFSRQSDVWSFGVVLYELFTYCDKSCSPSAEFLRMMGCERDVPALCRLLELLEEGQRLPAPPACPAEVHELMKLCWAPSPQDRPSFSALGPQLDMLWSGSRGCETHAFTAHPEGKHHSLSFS
How it was run: as §1

SMILES	JAK 3 (pKi)
C=CC(=O)N1CC(CCn2c(=O)ccc3cnc(Nc4cccc(C(C)N5CCN(C(C)=O)CC5)c4)nc32)C1 (stereo not drawn) [Example 216]	B (B represents pKi value between 9 and 10 (Ki between 1 nM and 0.1 nM))
C=CC(=O)N1CC(CC)(CCn2c(=O)ccc3cnc(Nc4ccc(N5CCN(C)CC5)cc4)nc32)C1 [Example 217]	B (B represents pKi value between 9 and 10 (Ki between 1 nM and 0.1 nM))
C=CC(=O)N1CCN(CCn2c(=O)ccc3cnc(Nc4ccc(N5CCN(C(C)(C)C)CC5)cc4)nc32)CC1 [Example 219]	B (B represents pKi value between 9 and 10 (Ki between 1 nM and 0.1 nM))
C=CC(=O)N1CCN(CCn2c(=O)ccc3cnc(Nc4cnn(CCOC(C)C)c4)nc32)[C@@H](CC)C1 [Example 220]	B (B represents pKi value between 9 and 10 (Ki between 1 nM and 0.1 nM))
C=CC(=O)N1CCN(CCn2c(=O)ccc3cnc(Nc4cnn(CCOCC)c4)nc32)[C@@H](CC)C1 [Example 221]	B (B represents pKi value between 9 and 10 (Ki between 1 nM and 0.1 nM))
C=CC(=O)N1CC(CCn2c(=O)ccc3cnc(Nc4ccc(OCCO)cc4)nc32)C1 [Example 223]	A (A represents a pKi value≥10 (Ki≤0.1 nM))
C=CC(=O)N1CC(CCn2c(=O)ccc3cnc(Nc4ccc(N(C)CCO)cc4)nc32)C1 [Example 224]	B (B represents pKi value between 9 and 10 (Ki between 1 nM and 0.1 nM))

same assay, conditions: selectivity JAK3 over JAK1, difference of pKi

SMILES	JAK3 (pKi)-JAK1 (pKi)
C=CC(=O)N1CC(CCn2c(=O)ccc3cnc(Nc4cccc(C(C)N5CCN(C(C)=O)CC5)c4)nc32)C1 (stereo not drawn) [Example 216]	A (A represents a value of 3 or above)
C=CC(=O)N1CC(CC)(CCn2c(=O)ccc3cnc(Nc4ccc(N5CCN(C)CC5)cc4)nc32)C1 [Example 217]	A (A represents a value of 3 or above)
C=CC(=O)N1CCN(CCn2c(=O)ccc3cnc(Nc4ccc(N5CCN(C(C)(C)C)CC5)cc4)nc32)CC1 [Example 219]	A (A represents a value of 3 or above)
C=CC(=O)N1CCN(CCn2c(=O)ccc3cnc(Nc4cnn(CCOC(C)C)c4)nc32)[C@@H](CC)C1 [Example 220]	A (A represents a value of 3 or above)
C=CC(=O)N1CCN(CCn2c(=O)ccc3cnc(Nc4cnn(CCOCC)c4)nc32)[C@@H](CC)C1 [Example 221]	A (A represents a value of 3 or above)
C=CC(=O)N1CC(CCn2c(=O)ccc3cnc(Nc4ccc(OCCO)cc4)nc32)C1 [Example 223]	A (A represents a value of 3 or above)
C=CC(=O)N1CC(CCn2c(=O)ccc3cnc(Nc4ccc(N(C)CCO)cc4)nc32)C1 [Example 224]	A (A represents a value of 3 or above)

target: Tyk2 (Homo sapiens (Human), UniProt P29597); test: Biochemical Tyk2 kinase assay (LanthaScreen); settings: not given
Sequence (P29597 whole entry): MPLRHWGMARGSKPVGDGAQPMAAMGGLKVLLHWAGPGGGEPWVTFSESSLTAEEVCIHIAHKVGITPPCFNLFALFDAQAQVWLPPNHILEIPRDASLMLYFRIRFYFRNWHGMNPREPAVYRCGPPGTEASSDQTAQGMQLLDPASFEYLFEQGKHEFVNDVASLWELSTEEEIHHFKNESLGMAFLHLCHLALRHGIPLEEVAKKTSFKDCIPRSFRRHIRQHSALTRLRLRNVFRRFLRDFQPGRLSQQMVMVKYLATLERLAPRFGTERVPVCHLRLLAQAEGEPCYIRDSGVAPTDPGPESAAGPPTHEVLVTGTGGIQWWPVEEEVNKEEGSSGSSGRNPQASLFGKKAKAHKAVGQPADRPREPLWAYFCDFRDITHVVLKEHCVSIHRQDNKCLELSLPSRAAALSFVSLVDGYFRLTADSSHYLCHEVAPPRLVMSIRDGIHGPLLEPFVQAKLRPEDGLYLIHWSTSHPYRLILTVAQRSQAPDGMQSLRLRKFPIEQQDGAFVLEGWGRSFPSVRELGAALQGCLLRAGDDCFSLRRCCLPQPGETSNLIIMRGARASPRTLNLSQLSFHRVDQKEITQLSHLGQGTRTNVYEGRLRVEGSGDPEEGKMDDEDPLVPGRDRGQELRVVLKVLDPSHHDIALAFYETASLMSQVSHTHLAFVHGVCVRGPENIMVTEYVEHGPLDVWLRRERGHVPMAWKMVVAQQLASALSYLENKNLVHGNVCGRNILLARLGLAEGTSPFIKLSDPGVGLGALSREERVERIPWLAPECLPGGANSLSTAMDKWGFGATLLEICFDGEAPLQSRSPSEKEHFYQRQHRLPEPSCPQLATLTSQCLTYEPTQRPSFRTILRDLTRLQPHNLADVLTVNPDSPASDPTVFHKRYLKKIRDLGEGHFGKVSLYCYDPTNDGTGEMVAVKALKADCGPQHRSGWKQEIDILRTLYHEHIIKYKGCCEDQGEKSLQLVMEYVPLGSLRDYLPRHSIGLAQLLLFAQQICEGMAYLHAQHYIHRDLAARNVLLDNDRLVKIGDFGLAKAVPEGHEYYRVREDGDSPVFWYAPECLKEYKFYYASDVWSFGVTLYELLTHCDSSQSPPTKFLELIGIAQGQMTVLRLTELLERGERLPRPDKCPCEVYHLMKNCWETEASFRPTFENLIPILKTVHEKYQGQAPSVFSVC
How it was run: as §1

SMILES	Tyk 2 (pKi)
C=CC(=O)N1CC(CCn2c(=O)ccc3cnc(Nc4cccc(C(C)N5CCN(C(C)=O)CC5)c4)nc32)C1 (stereo not drawn) [Example 216]	E (E represents a pKi value of 7 or below (Ki of 100 nM or above))
C=CC(=O)N1CC(CC)(CCn2c(=O)ccc3cnc(Nc4ccc(N5CCN(C)CC5)cc4)nc32)C1 [Example 217]	E (E represents a pKi value of 7 or below (Ki of 100 nM or above))
C=CC(=O)N1CCN(CCn2c(=O)ccc3cnc(Nc4ccc(N5CCN(C(C)(C)C)CC5)cc4)nc32)CC1 [Example 219]	E (E represents a pKi value of 7 or below (Ki of 100 nM or above))
C=CC(=O)N1CCN(CCn2c(=O)ccc3cnc(Nc4cnn(CCOC(C)C)c4)nc32)[C@@H](CC)C1 [Example 220]	E (E represents a pKi value of 7 or below (Ki of 100 nM or above))
C=CC(=O)N1CCN(CCn2c(=O)ccc3cnc(Nc4cnn(CCOCC)c4)nc32)[C@@H](CC)C1 [Example 221]	E (E represents a pKi value of 7 or below (Ki of 100 nM or above))
C=CC(=O)N1CC(CCn2c(=O)ccc3cnc(Nc4ccc(OCCO)cc4)nc32)C1 [Example 223]	E (E represents a pKi value of 7 or below (Ki of 100 nM or above))
C=CC(=O)N1CC(CCn2c(=O)ccc3cnc(Nc4ccc(N(C)CCO)cc4)nc32)C1 [Example 224]	E (E represents a pKi value of 7 or below (Ki of 100 nM or above))
